In data set [1] the test system is corneal epithelial cell regeneration in pigmented rabbits. The data set can be described thus: Toxicity test: corneal re-epithelialization (wound healing) after mechanical removal of epithelial cells. The note with it: for Animals with complete healing of the cornea / total animals per group: 2 drops at 4 hourly intervals for 6 days. As for the experimental part:
Healthy pigmented rabbits weighing about 1.5-2.2 kg were anesthetized and then corneal epithelial cells were scraped and removed using a blade under direct view of a microscope. The basal lamina was left intact while thorough de-epithelialization was performed and confirmed by staining the surface of the cornea with 1% fluorescein. […] Eyes in each group were instilled with two drops of the corresponding solution at 4 hourly intervals for 6 consecutive days. Wound healing (corneal re-epithelialization) was assessed on days 2, 3, 4, 5, 6, 7, and 8 following corneal abrasion using fluorescein staining with Fluor-I-Strip, and epithelial regeneration and migration were monitored by clinical examinations as well as wound surface area measurements.

The test system of data set [2] is corneal sensitivity of patients with corneal abrasion or after a refractive procedure. The note with it: 2 drops topical, morphine 0.5 mg/ml, mean ± SEM.
Description: The following describes analgesic tests which were performed on patients following topical application of the prepared and previously described topical ophthalmic analgesic formulation. […] Five patients were selected to participate in this study. In all cases, three measurements were made in the following fashion: First, a baseline response (corneal sensitivity) was established by determining the response of the patient eye to a standard pain pressure using a Cochet Bonnet Aesthesiometer instrument and without applying any drug. Measurements were made by beginning with the nylon monofilament (0.12 mm diameter) fully extended. The tip was applied perpendicularly to the corneal surface and gently pressed until the fiber's first visible bending. […] The length was then recorded in units of mm. Second, a saline solution (2 drops) were instilled in the eye and at 10 and 20 minutes later the response of the patient's cornea to pain pressure was determined as described above. These repeated measurements served as a placebo effect for comparison purposes.
Again, an Aesthesiometer, based upon the principle of pressure transmitted axially by a nylon monofilament of known diameter but of variable length for a given bending stress, was applied to the corneal surface. […] The distance, in millimeters (mm) of the nylon monofilament is recorded and then converted to pressure in gram/square millimeter.
The subject of data set [3] is pain scores following knee surgery. The note with it: applied locally inside the joints following knee surgery; cited from earlier work.
For data set [4], the system named is pupil of morphine-dependent subject. The note with it: applied topically to one eye of a morphine-dependent subject; cited from earlier work.

The values that follow come from patent US6384043B1, “Methods of alleviating pain sensations of the denuded eye with opioid analgesics” (priority 1993, dated 2002).

Counter-ions that a name gives are not always drawn. Like-named read-outs stand apart in the source and are kept apart here.

In the case of `CCCOc1ccc(C(=O)OCCN(CC)CC)cc1N` [Alcaine, proparacaine HCl], the “Complete regeneration / wound healing by” value in data set [1] (pigmented, rabbit, in vivo) is no more than 8 days. Further, in data set [1] (rabbit, in vivo), the “Day on which eyes began to show epithelial regeneration” value is listed as “third day”; the “Effect of repeated topical application on corneal epithelial cell regeneration and migration” value is “significantly prevented regeneration”.

With `CN1CC[C@]23c4c5ccc(O)c4O[C@H]2[C@@H](O)C=C[C@H]3[C@H]1C5.O=S(=O)(O)O` [Morphine, morphine sulphate], the “Animals with complete healing of the cornea / total animals per group” value is 0/6 in data set [1] (day 1); 0/6 in data set [1] (day 2); 0/6 in data set [1] (day 3); 1 in data set [1] (day 4); 1/6 in data set [1] (day 4, sulphate); 3/6 in data set [1] (day 5, sulphate). Moreover, the “Animals with complete healing of the cornea / total animals per group” value in data set [1] (day 6) is recorded as 4/6; in data set [1] (day 7, sulphate), 5/6; in data set [1] (day 8) it was 5/6. The “Corneal sensitivity expressed as pressure” value in data set [2] (10 min after treatment) came out at 7.69 ± 2.16 grm/sq. mm; in data set [2] (20 min after treatment) it was 9.84 ± 1.00 grm/sq. mm. Besides, the “Effect on pain scores” value in data set [3] is “significantly reduced pain scores”. Further, the “Time to maximal effect” value in data set [3] is 3 to 6 h.

For the molecule `C=CCN1CC[C@]23c4c5ccc(O)c4O[C@H]2C(=O)CC[C@@]3(O)[C@H]1C5` [naloxone], the “Effect on pupil of the same eye” value in data set [4] is listed as “pupillary dilation”.
